# Measured values from EP4380555B1, “COMPOSITION COMPRISING D-MANNOSE, N-ACETYLCYSTEINE AND PALMITOYLETHANOLAMIDE AND ITS USE FOR THE TREATMENT OF URIRNARY TRACT INFECTIONS” (Agave S.r.l., priority 2021, dated 2023).
# Assays:
# Enterococcus faecium [1] = assay: MBIC, comparison with D-mannose, crystal violet staining; format: cell-based
# Description: (§1) To determine the MBIC with the product Comp. 1 in Example 10 with respect to the D-mannose, 48-well plates were utilised. 200 µL of the product Comp. 1, prepared at a concentration of 2x with respect to the maximum concentration being tested, was dispensed into the first well and […] was added to the subsequent wells, performing serial dilutions of 1:2 up to the 8th well. Finally, 200 µL of each microorganism, at a concentration of 10^5, was inoculated into each well. The biofilm inhibition activity of the D-mannose at the same concentration as that present in the product Comp. 1 was also assessed. The multiwell plates were incubated at 37°C for 24 hours and then the supernatant present was removed, together with the planktonic bacteria not attached to the plate. The biofilm was then washed 3 times with PBS and subsequently the cells were fixed by means of incubation at 60°C for 2 hours, before being stained with crystal violet. 100 µL crystal violet dissolved in deionised water was dispensed into each well and, after 5 minutes of incubation at room temperature, each well was finally washed three times with PBS 1x. The biofilm inhibition activity was viewed by microscopic observation under stereomicroscope and optical microscope using the phase-contrast method. The final concentrations tested for each compound are stated in Table 6. Table 6 [table]
# Klebsiella pneumoniae = assay: as above; format: cell-based
# Description: as §1
# Escherichia coli = assay: as above; format: cell-based
# Description: as §1
# Enterococcus faecium [2] = assay: MIC determination by broth dilution (CLSI M07), 96-well plates; format: cell-based; settings: E. faecium; range tested: Comp. 1 100-0.05 g/L, D-mannose 65-0.03 g/L; 24 h
# [3] = system: Klebsiella pneumoniae (DSM 30104); assay: as above; format: cell-based; settings: K. pneumoniae; range tested: Comp. 1 100-0.05 g/L, D-mannose 65-0.03 g/L; 24 h
# Description: (§2) The antimicrobial activity of the product Comp. 1 in Example 10 was tested in vitro according to method CLSI M07 "Methods for dilution Antimicrobial susceptibility tests for bacteria that grow aerobically".
# (§3) For this purpose, the MIC (Minimum Inhibitory Concentration) values were determined with respect to the main microorganisms responsible for urinary tract infections.
# (§4) More specifically, the microorganisms utilised were: Escherichia coli (DSM 1576), Klebsiella pneumoniae (DSM 30104), and Enterococcus faecalis(DSM 20477).
# (§5) For each experiment conducted, the bacteria stated above were revived from a cell bank stored at -80°C. […]
# (§6) The assay to determine the MIC was conducted in 96-well plates testing 12 concentrations (serial dilutions) of each sample. 200 µL of the sample, prepared at a concentration of 2x with respect to the maximum concentration being tested, was dispensed into the first well and 100 µL medium was added to the subsequent wells, performing serial dilutions of 1:2 up to 12th well. Finally, 100 µL of each microorganism at a concentration of 10^5 was inoculated into each well.
# (§7) Two antibiotics were used as controls: Fosfomycin (Sigma) and Ceftriaxone (Sigma) at different final concentrations based on the microorganism utilised; both the antibiotics were dissolved in sterile water and then filtered with 0.22 µm filters.
# (§8) Growth was tested and the sterility of the medium and of the product was tested. The antimicrobial activity of the D-mannose was also assessed individually. The plates thus prepared were incubated at 37°C for 24h and the results were then observed (Figure 1). The final concentrations tested for each product analysed are stated in Table 2.
# [4] = system: Escherichia coli (DSM 1576); assay: as above; format: cell-based; settings: E. coli; range tested: Comp. 1 100-0.05 g/L, D-mannose 65-0.03 g/L; 24 h
# Description: as §2, §3, §4, §5, §6, §7, §8
# IL-8 = assay: Anti-inflammatory activity: IL-8 production induced by TNFα, ELISA; format: cell-based, human; settings: 0.2 µg/mL TNFα, 6 hours
# From the text: We assessed the capacity of the product Comp. 1 in Example 10 to inhibit or reduce the inflammatory state induced, in the same cells as in the previous example, by pro-inflammatory cytokine TNFα. This treatment led to the production of interleukin 8 (IL-8), which is cause of the "recruitment" of white blood cells to the site of inflammation. The IL-8 levels are directly proportional to the intensity of said inflammation.
# The 6 product concentrations utilised in the anti-inflammatory test were chosen based on the cell viability test results. […] This is because the product per se leads to the reduction, and therefore the staining, of the MTT.
# We first determined the optimal amount of TNFα to perform the test. […] The treatment was performed at 37°C and 5% CO2 for a total of 6 hours; aliquots of 200 µL of the growth medium were taken at the start of the treatment (T0) and after 1, 2, 4 and 6 hours, and then analysed by ELISA test. […]
# Anti-inflammatory drug dexamethasone (dex) at a concentration of 0.1 mg/mL was utilised as a positive control. The treatment was performed for 6 hours, at the end of which as aliquots of 200 µL of the growth medium were taken and then analysed by ELISA test. […] The quantification was performed by setting up a calibration curve with different concentrations of a standard IL-8 solution, supplied with the kit. […]
# [5] = system: Klebsiella Pneumoniae DSM 30104; assay: MBIC test of composition versus its components, crystal violet absorbency at 595 nm; format: cell-based; settings: MBIC K. pneumoniae
# Description: (§9) The composition of Example 1 was tested to assess the capacity to inhibit the formation of biofilm shown by the following microorganisms: • Klebsiella Pneumoniae DSM 30104 • Enterococcus Faecium DSM 20477
# (§10) The bacteria stated above were revived from the working cell bank, stored at -80°C, for each experiment conducted.
# (§11) The tests were conducted on the following formulations: • Mannose 3000 mg + NAC 600 mg + PEA 600 mg (i.e. composition Example 1) • Mannose 3000 mg + NAC 600 mg • PEA 600 mg
# (§12) The three formulations were dissolved at 100 gr/l in sterile TSB/TSYEM medium and then utilised to perform the MBIC test as follows.
# (§13) MBIC 48-well plates were utilised for the determination. 800 µL sample, prepared at a concentration of 2x with respect to the maximum concentration being tested, was dispensed into the first well and 400 µL medium was added to the subsequent wells, performing serial dilutions of 1:2 up to the 8th well. Finally, 400 µL of each microorganism at a concentration of 10^5 was inoculated into each well. The multiwell plates were incubated at 37°C for 24 hours and then the supernatant present was removed, together with the planktonic bacteria not attached to the plate.
# (§14) The biofilm was then washed 3 times with sterile deionised water and subsequently the cells were fixed by means of incubation at 60°C for 2 hours, before being stained with crystal violet. The crystal violet staining was performed to assess the effect of the product and the components thereof on the biofilm formation. 200 µL of 0.02% crystal violet dissolve in deionised water was dispensed into each well and, after 5 minutes of incubation at room temperature, each well was finally washed three times with sterile deionised water. The biofilm inhibition activity was viewed by microscopic observation under stereomicroscope.
# (§15) At the end of the microscopic observation of the condition of the biofilm by staining, the stain fixed to the biofilm treated was extracted utilising 100% methanol for 5 minutes at room temperature. The methanolic extract thus obtained was analysed under spectrophotometer to measure the absorbency at 595 nm. As the solution stain intensity obtained is proportional to the biofilm remaining, absorbency is a quantitative parameter which can be used to measure the amount of biofilm. Absorbency was therefore utilised to determine the biofilm decrease percentage by comparing the data obtained following treatments against the untreated biofilm control.
# [6] = system: Enterococcus Faecium DSM 20477; assay: as above; format: cell-based; settings: E. faecium MBIC
# Description: as §9, §10, §11, §12, §13, §14, §15
# Enterococcus faecium [7] = assay: MBEC test of composition versus its components, 24 h preformed biofilm, crystal violet; format: cell-based; settings: MBEC E. faecium
# Description: To determine the minimum biofilm eradication concentration, 48-well plates were utilised. The microorganisms were incubated for 24 h at 37°C to allow the formation of the biofilm. Once formed, the biofilms were treated with the composition in Example 1 and the respective components (as per Example 17) to eradicate the biofilm. In particular, after the formation of the biofilm, the supernatant was suctioned and replaced with solutions containing decreasing concentrations of the product. The plates thus prepared were incubated for 24 h at 37°C. At the end of the incubation time, the supernatant present in each well was removed, together with the bacteria that was not attached to the plate and following the washes with sterile deionised water the plates were incubated at 60°C for 2 hours to fix the cells before the staining with crystal violet. The crystal violet staining was performed to assess the effect of the product and of the components thereof on the removal of the biofilm. 200 µL of crystal violet dissolved in deionised water at a concentration of 0.02% was dispensed into each well and, after 5 minutes of incubation at room temperature, each well was washed three times with sterile deionised water. The biofilm eradication activity was viewed under microscopic observation.
smiles,measurement,setting,value
O=C[C@@H](O)[C@@H](O)[C@H](O)[C@H](O)CO [D-mannose],concentration of the mannose alone needed for the same efficaciousness as Comp. 1,Enterococcus faecium [1]; E. faecium biofilm,approximately 10 times
same,concentration with evident activity on the biofilm,"Enterococcus faecium [1]; E. faecium, 24 h",65 g/L
same,concentration of the mannose alone needed for the same efficaciousness as Comp. 1,Klebsiella pneumoniae; K pneumoniae biofilm,approximately 10 times
same,concentration active on biofilm formation,"Klebsiella pneumoniae; K. pneumoniae, 24 h",8.13 g/L
same,concentration of the mannose alone needed for the same efficaciousness as Comp. 1,Escherichia coli; E. coli biofilm,approximately 2.5 times
same,concentration active on biofilm formation,"Escherichia coli; E. coli, 24 h",32.5 g/L
same,antimicrobial activity,Enterococcus faecium [2],did not demonstrate any antimicrobial activity
same,antimicrobial activity,[3],did not demonstrate any antimicrobial activity
same,antimicrobial activity,[4],did not demonstrate any antimicrobial activity
"C[C@@H]1C[C@H]2[C@@H]3CCC4=CC(=O)C=C[C@]4(C)[C@@]3(F)[C@@H](O)C[C@]2(C)[C@@]1(O)C(=O)CO [Dex, dexamethasone]",concentration of IL-8 with respect to the cells treated solely with TNFα,"IL-8; Dex 0.1 mg/mL, TNFα alone = 100",69%
same,IL-8 produced less than that produced by the cells treated solely with TNFα,IL-8; Dexamethasone 0.1 mg/mL,31%
"CCCCCCCCCCCCCCCC(=O)NCCO [PEA, palmitoylethanolamide]",Abs 595 nm,"[5]; 1.56 g/L product of Example 1, components at the same concentration as in the composition, untreated biofilm 0.176",0.129
same,% decrease,"[5]; treated versus untreated biofilm, 1.56 g/L product of Example 1",26.70%
same,Abs 595 nm,"[6]; 3.13 g/L product of Example 1, components at the same concentration as in the composition, untreated biofilm 0.318",0.304
same,% decrease,"[6]; treated versus untreated biofilm, 3.13 g/L product of Example 1",4%
same,Abs 595 nm,"Enterococcus faecium [7]; 24 h biofilm, 24 h treatment, untreated biofilm 2.09",2.098
same,% decrease,Enterococcus faecium [7]; treated versus untreated biofilm,0%
